In patent US7446102B2, “Antibacterial amide macrocycles IV” (priority 2004, dated 2008):
pIC50: −log10 of the molar value. Where a name gives a salt, the structure may show the parent alone.

Experiments:
[1] = tested on: S. aureus RN4220Bi^R; assay: MIC on biphenomycin-resistant S. aureus RN4220Bi^R; format: cell-based; details: Staphylococcus aureus, read-out: MIC, selected colony (strain RN4220Bi^R)
Experimental: The S. aureus strain RN4220Bi^R is isolated in vitro. For this purpose, 100 μl portions of an S. aureus RN4220 cell suspension (about 1.2×10^8 cfu/ml) are plated out on an antibiotics-free agar plate (18.5 mM Na2HPO4, 5.7 mM KH2PO4, 9.3 mM NH4Cl, 2.8 mM MgSO4, 17.1 mM NaCl, 0.033 μg/ml thiamine hydrochloride, 1.2 μg/ml nicotinic acid, 0.003 μg/ml biotin, 1% glucose, 25 μg/ml of each proteinogenic amino acid with the addition of 0.4% BH broth and 1% agarose) and on an agar plate containing 2 μg/ml biphenomycin B (10×MIC), and incubated at 37° C. overnight. Whereas about 1×10^7 cells grow on the antibiotics-free plate, about 100 colonies grow on the antibiotics-containing plate, corresponding to a resistance rate of 1×10^−5. Some of the colonies grown on the antibiotics-containing plate are tested for the biphenomycin B MIC. One colony with an MIC of >50 μM is selected for further use, and the strain is referred to as RN4220Bi^R.

[2] = target: S. aureus 133 translation; assay: S. aureus in vitro transcription-translation assay (firefly luciferase, S30 extract); format: biochemical; details: 50% inhibition of the translation of firefly luciferase
Excerpt: In Vitro Transcription-Translation with S. aureus Extracts
Construction of an S. aureus Luciferase Reporter Plasmid
For the construction of a reporter plasmid which can be used in an in vitro transcription-translation assay from S. aureus the plasmid pBESTluc (Promega Corporation, USA) is used. The E. coli tac promoter present in this plasmid in front of the firefly luciferase is replaced by the capA1 promoter with appropriate Shine-Dalgarno sequence from S. aureus. The primers CAPFor 5′-[…] […] […]-3′ and CAPRev 5′-[…]-3′ are used for this. The primer CAPFor contains the capA1 promoter, the ribosome binding site and the 5′ region of the luciferase gene. After PCR using pBESTluc as template it is possible to isolate a PCR product which contains the firefly luciferase gene with the fused capA1 promoter. This is, after restriction with ClaI and HindIII, ligated into the vector pBESTluc which has likewise been digested with ClaI and HindIII. The resulting plasmid p1a is able to replicate in E. coli and be used as template in the S. aureus in vitro transcription-translation assay.
Preparation of S30 Extracts from S. aureus
Six liters of BHI medium are inoculated with a 250 ml overnight culture of an S. aureus strain and allowed to grow at 37° C. until the OD600 nm is 2-4. The cells are harvested by centrifugation and washed in 500 ml of cold buffer A (10 mM Tris acetate, pH 8.0, 14 mM magnesium acetate, 1 mM DTT, 1 M KCl). After renewed centrifugation, the cells are washed in 250 ml of cold buffer A with 50 mM KCl, and the resulting pellets are frozen at −20° C. for 60 min. The pellets are thawed on ice in 30 to 60 min and taken up in buffer B (10 mM Tris acetate, pH 8.0, 20 mM magnesium acetate, 1 mM DTT, 50 mM KCl) up to a total volume of 99 ml. 1.5 ml portions of lysostaphin (0.8 mg/ml) in buffer B are introduced into 3 precooled centrifuge cups and each is mixed with 33 ml of the cell suspension. The samples are incubated at 37° C., shaking occasionally, for 45 to 60 min, before 150 μl of a 0.5 M DTT solution are added. The lysed cells are centrifuged at 30 000×g and 4° C. for 30 min. The cell pellet is taken up in buffer B and then centrifuged again under the same conditions, and the collected supernatants are combined. The supernatants are centrifuged again under the same conditions, and 0.25 volumes of buffer C (670 mM Tris acetate, pH 8.0, 20 mM magnesium acetate, 7 mM Na3 phosphoenolpyruvate, 7 mM DTT, 5.5 mM ATP, 70 μM amino acids (complete from Promega), 75 μg of pyruvate kinase (Sigma, Germany))/ml are added to the upper ⅔ of the supernatant. The samples are incubated at 37° C. for 30 min. The supernatants are dialysed against 21 of dialysis buffer (10 mM Tris acetate, pH 8.0, 14 mM magnesium acetate, 1 mM DTT, 60 mM potassium acetate) in a dialysis tube with a 3500 Da cut-off with one buffer change at 4° C. overnight. The dialysate is concentrated to a protein concentration of about 10 mg/ml by covering the dialysis tube with cold PEG 8000 powder (Sigma, Germany) at 4° C. The S30 extracts can be stored in aliquots at −70° C.
Determination of the IC50 in the S. aureus In Vitro Transcription-Translation Assay
Inhibition of protein biosynthesis of the compounds can be shown in an in vitro transcription-translation assay. The assay is based on the cell-free transcription and translation of firefly luciferase using the reporter plasmid p1a as template and cell-free S30 extracts obtained from S. aureus. The activity of the resulting luciferase can be detected by luminescence measurement.
The amount of S30 extract or plasmid p1a respectively to be employed must be tested anew for each preparation in order to ensure an optimal concentration in the assay. 3 μl of the substance to be tested, dissolved in 5% DMSO, are introduced into an MTP. Then 10 μl of a suitably concentrated plasmid solution p1a are added. […]

Q: `NC[C@H](O)C[C@@H]1NC(=O)[C@@H](N)Cc2cc(ccc2O)-c2ccc(O)c(c2)C[C@@H](C(=O)O)NC1=O` [Example 20A, 14(S)-Amino-11(S)-(3-amino-2(R)-hydroxypropyl)-5,17-dihydroxy-10,13-dioxo-9,12-diazatricyclo[14.3.1.1^2,6]henicosa-1(19),2,4,6(21),16(20),17-hexaene-8(S)-carboxylic acid dihydrochloride, reference compound] was tested. Which MIC [1] did it give?
A: Its MIC is over 50 µM.

Q: And the pIC50 [2]?
A: Its pIC50 is 5.82.
